Experimental data: publication PMC8713164, “Development of a 1,2,4-Triazole-Based Lead Tankyrase Inhibitor: Part II” (Journal of Medicinal Chemistry, 2021)
Converted amounts (≈) assume the structure as drawn. Where two headings read alike, the source gives them in different places.

Legend:
[1] = design: method as in PMID 32511917; conditions: cited from earlier work
[2] = tested on: Cerep Safety panel 44 targets; design: method as in PMID 32511917; conditions: 10 μM; cited from earlier work
[3] = mouse PO 5 mg/kg; cited from earlier work
Caco-2 = conditions: cited from earlier work
[4] = design: method as in PMID 32511917; conditions: PBS pH = 7; cited from earlier work
COLO 320DM cells = conditions: cited from earlier work
WNT/β-catenin signaling [5] = conditions: cited from earlier work
[6] = design: method as in PMID 32511917; conditions: cited from earlier work; remark: listed apart in the source
[7] = design: method as in PMID 32511917; conditions: cited from earlier work; remark: listed apart in the source
A2A = conditions: 10 μM; cited from earlier work
kinetic solubility = type: physicochemical; conditions: PBS pH = 7
Method: Kinetic solubility, microsomal stability, and plasma stability were determined following our internal protocol (Symeres). The Caco-2 and PPB determinations were performed by Cyprotex.

WNT/β-catenin signaling [8] = assay: cellular (HEK293) WNT/β-catenin signaling luciferase reporter assay; type: cell-based, human; conditions: triplicates, 24: averages of multiple independent measurements
[9] = mouse peroral pharmacokinetic analysis; type: in vivo; conditions: mouse PO 5 mg/kg; for AUC(0-inf) at 24 h / AUC(0-t) at 24 h / Cmax at 24 h / Tmax at 24 h / half-life at 24 h / MRT inf at 24 h: IRC, in vivo; for MRT inf at 24 h: read-out: MRT 0 → ∞
Method: The pharmacokinetic analyses in mice were performed according to the standard protocols of Medicilon as previously described[21] following approval by local animal experiment authorities (Shanghai, China) and in compliance with FELASA guidelines and recommendations. Three IRC mice were used per treatment group: 5 mg/kg 24 in 5% DMSO, 50% PEG400 (both Sigma-Aldrich), and 45% saline as vehicle.

TNKS2 = target: T1, TNKS2 (Homo sapiens, UniProt Q9H2K2); assay: TNKS2 biochemical assay (unreacted NAD+ fluorescence); conditions: TNKS2 5 nM, 500 nM NAD+, 20 h; quadruplicates; 95% confidence intervals in parentheses; 24: averages of multiple independent measurements; read-out: IC50 TNKS2
T1 construct: TNKS2 (residues 873–1162); made in house
T1 sequence (Q9H2K2 873-1162): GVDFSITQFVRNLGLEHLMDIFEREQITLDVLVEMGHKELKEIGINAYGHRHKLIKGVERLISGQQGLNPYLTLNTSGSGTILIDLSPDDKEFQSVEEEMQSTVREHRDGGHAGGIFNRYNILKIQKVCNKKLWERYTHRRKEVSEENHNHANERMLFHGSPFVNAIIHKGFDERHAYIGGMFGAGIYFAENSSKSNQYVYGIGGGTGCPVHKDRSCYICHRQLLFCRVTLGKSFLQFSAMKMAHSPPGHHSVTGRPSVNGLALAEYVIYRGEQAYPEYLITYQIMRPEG
Method: New compounds were prepared in half-log dilution series, and the reactions were carried out in quadruplicates with protein and compound controls to exclude the effect of compound autofluorescence. All reactions were performed at ambient temperature. TNKS1 (20 nM) or TNKS2 (5 nM) was incubated for 20 h in assay buffer (50 mM Bis-Tris propane (BTP), pH 7.0, 0.5 mM Tris(2-carboxyethyl)phosphine (TCEP), 0.01% Triton X-100) with compound and 10 μM or 500 nM NAD^+, respectively.

[10] = Homo sapiens, HEK293, read-out: IC50 HEK293, HEK293 WNT/β-catenin signaling reporter assay
[11] = read-out: IC50 HEK293, HEK293 WNT/β-catenin signaling reporter assay

Row | Compound | IC50 (WNT/β-catenin signaling [8]; [10]) [nM] | IC50 (WNT/β-catenin signaling [8]; [11]) [nM] | AUC(0-inf) at 24 h [9] [ng·h/mL] | AUC(0-t) at 24 h [9] [ng·h/mL] | Cmax at 24 h [9] [ng/mL] | Tmax at 24 h [9] [min] | half-life at 24 h [9] [min] | MRT inf at 24 h [9] [min] | CL [9] [mL/min/kg] | Vd [9] [L/kg] | IC50 (TNKS2) [nM] | other results
1 | CCOc1ccc(-c2nnc([C@H]3C[C@H](NC(=O)c4ccccn4)C3)n2-c2ccccc2F)nc1 [Compound 1] |  |  |  |  |  |  |  |  |  |  |  | Ames test [1]: nongenotoxic; Cerep Safety panel 44 targets (overall result) [2]: clean; CL [3]: 34.8 mL/min/kg; Caco-2 A–B: Papp (Caco-2): 39.5 10^–6 cm/s; kinetic solubility [4]: >80 µM; COLO 320DM cells GI25 (COLO 320DM cells): 94 nM; GI50 (COLO 320DM cells): 650 nM; IC50 (WNT/β-catenin signaling [5]; HEK293 WNT/β-catenin signaling reporter assay): 19 nM; HEK293 reporter assay pIC50 ± SEM (WNT/β-catenin signaling [5]): 19 (7.75 ± 0.067); microsomal stability mouse CLint ([6]; mouse): 27 μL/min/mg protein; microsomal stability human CLint [7]: < 5 μL/min/mg protein; Cerep Safety panel inhibition of A2A (A2A): 53%
2 | CCOc1ccc(-c2nnc([C@H]3C[C@H](NC(=O)c4ccnc5cccnc45)C3)n2-c2ccccc2F)nc1 [Compound 15a] |  |  |  |  |  |  |  |  |  |  |  | metabolic stability in mouse microsomes [6]: high metabolic instability
3 | CCOc1ccc(-c2nnc([C@H]3C[C@H](NC(=O)c4ccnc5cc(F)cnc45)C3)n2-c2ccncc2)nc1 [Compound 18b, N-(trans-3-(5-(5-Ethoxypyridin-2-yl)-4-(pyridin-4-yl)-4H-1,2,4-triazol-3-yl)cyclobutyl)-7-fluoro-1,5-naphthyridine-4-carboxamide] | 6 | 6.4 | 322 | 319 | 285 | 15 | 60 | 93.6 | 260 | 22.4 | 2.9 | solubility kinetic (kinetic solubility): > 80 µM
4 | CCOc1ccc(-c2nnc([C@H]3C[C@H](NC(=O)c4ccnc5cccnc45)C3)n2-c2ccc(C)s2)nc1 [Compound 22a, N-(trans-3-(5-(5-Ethoxypyridin-2-yl)-4-(5-methylthiophen-2-yl)-4H-1,2,4-triazol-3-yl)cyclobutyl)-1,5-naphthyridine-4-carboxamide] | 0.81 |  | 547 | 543 | 779 | 15 | 70.2 | 83.4 | 152 | 15.5 | 0.73 | solubility kinetic at 1 h (kinetic solubility): 50 µM (≈ 25.6 µg/mL)
5 | O=C(N[C@H]1C[C@H](c2nnc(-c3ccc(OC(F)F)cn3)n2-c2ccccc2F)C1)c1cccc2nccnc12 [Compound 29a, N-(trans-3-(5-(5-(Difluoromethoxy)pyridin-2-yl)-4-(2-fluorophenyl)-4H-1,2,4-triazol-3-yl)cyclobutyl)quinoxaline-5-carboxamide] | 1.2 |  |  |  |  |  |  |  |  |  | 1.9 | 
6 | O=C(N[C@H]1C[C@H](c2nnc(-c3ccccn3)n2-c2ccccc2F)C1)c1cccc2nccnc12 [Compound 30a, N-(trans-3-(4-(2-Fluorophenyl)-5-(pyridin-2-yl)-4H-1,2,4-triazol-3-yl)cyclobutyl)quinoxaline-5-carboxamide] | 0.29 | 0.286 |  |  |  |  |  |  |  |  | 1.6 | 
7 | Cc1cccc(-c2nnc([C@H]3C[C@H](NC(=O)c4cccc5nccnc45)C3)n2-c2ccccc2F)n1 [Compound 31a, N-(trans-3-(4-(2-Fluorophenyl)-5-(6-methylpyridin-2-yl)-4H-1,2,4-triazol-3-yl)cyclobutyl)quinoxaline-5-carboxamide] | 1.5 |  | 3400 | 3400 | 2770 | 15 | 45.6 | 74.4 | 24.5 | 1.61 | 1.7 | solubility kinetic (kinetic solubility): > 80 µM
8 | Cc1cccc(-c2nnc([C@H]3C[C@H](NC(=O)c4cc(F)cc5nccnc45)C3)n2-c2ccccc2F)n1 [Compound 31b, N-(trans-3-(4-(2-Fluorophenyl)-5-(6-methylpyridin-2-yl)-4H-1,2,4-triazol-3-yl)cyclobutyl)-7-fluoroquinoxaline-5-carboxamide] | 0.17 | 0.169 | 5320 | 5310 | 5800 | 15 | 35.4 | 88.2 | 15.7 | 0.80 | 1.6 | solubility kinetic at 1 h (kinetic solubility): 13 µM (≈ 6.47 µg/mL)
